Results: publication PMC6934184, “Selective DNA-PKcs inhibition extends the therapeutic index of localized radiotherapy and chemotherapy” (The Journal of Clinical Investigation, 2019)

Target: T1, CLK1 (Homo sapiens, UniProt P49759)
T1 construct: purchased Thermo Fisher Scientific (Life Technologies) SelectScreen
Assay: SelectScreen Z'LYTE
Assay type: biochemical
Method in brief: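 SelectScreen broad panel; activity (Z'LYTE, Adapta) plus binding formats. ATP: Km app for CSF1R Z'LYTE; 10 for CAMK1 Adapta. Readout = % per kinase.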

T1 sequence (P49759 whole entry): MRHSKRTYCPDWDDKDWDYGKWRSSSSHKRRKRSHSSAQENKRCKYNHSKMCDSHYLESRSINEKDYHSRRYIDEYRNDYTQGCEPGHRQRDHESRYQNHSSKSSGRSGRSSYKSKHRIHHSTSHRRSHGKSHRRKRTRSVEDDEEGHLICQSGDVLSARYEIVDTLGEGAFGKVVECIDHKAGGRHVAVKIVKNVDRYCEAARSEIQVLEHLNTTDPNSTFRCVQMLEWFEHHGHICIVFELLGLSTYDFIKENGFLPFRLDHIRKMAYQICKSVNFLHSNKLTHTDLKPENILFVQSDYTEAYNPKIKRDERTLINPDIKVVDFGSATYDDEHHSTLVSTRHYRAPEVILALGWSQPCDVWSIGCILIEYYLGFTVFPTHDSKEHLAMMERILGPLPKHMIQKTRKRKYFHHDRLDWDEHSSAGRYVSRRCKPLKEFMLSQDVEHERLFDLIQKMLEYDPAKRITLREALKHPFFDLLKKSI

CN(C(=O)CN1CCOCC1)c1ccc2sc3c(-c4cccc5c(=O)cc(N6CC7CCC(C6)O7)oc45)cccc3c2c1 [NU5455]
inhibition at 1 µM: 11.7%
